Reference: patent US4085224A, “Method of increasing feed utilization” (Eli Lilly and Company, priority 1976, dated 1978)

Tests used:
Newcastle Disease virus = assay type: cell-based; settings: tissue-culture
[1] = system: Transmissible Gastro-enteritis virus; assay type: cell-based
Emeria brunetti = experiment: anticoccidial activity in chicks (Table IX); assay type: in vivo; settings: E. brunetti, 0.005 percent in feed
Text: (§1) ^1 Four replicates, 5 broiler cockerels each

Eimeria acervulina = experiment: anticoccidial activity in chicks (Table IX); assay type: in vivo; settings: E. acervulina; for Average Lesion Score: infected controls 1.60; for Oocysts Passed, Total/Bird: infected controls 36.32; for Percent Weight Gain: infected controls 63
Text: as §1

Eimeria maxima = experiment: anticoccidial activity in chicks (Table IX); assay type: in vivo; settings: E. maxima, 0.005 percent in feed
Text: as §1

Semliki Forest virus = experiment: in vitro plaque suppression test; assay type: cell-based
rumen fluid = experiment: in vitro rumen fluid volatile fatty acid production; parameters: species or system steer; settings: 1 ppm in rumen fluid, 16 hours at 38° C.
Text: As discussed hereinabove, efficiency of carbohydrate utilization in ruminants is increased by treatments which stimulate the amimal's rumen flora to produce propionate compounds rather than acetate or butyrate compounds. The efficiency of feed use can be monitored by observing the production and concentration of propionate compounds in the rumen, using the following methods:
Remen fluid is obtained from a steer with a surgically-installed fistula opening into the rumen. The steer is maintained on a high-grain ration. A sample of rumen fluid is strained through four layers of cheesecloth, and the filtrate is collected. The particulate matter retained by the cheesecloth is resuspended in enough physiological buffer to return it to the original volume of the rumen fluid, and this suspension is strained again. The buffer used has the following composition:
The two filtrates are combined and allowed to stand until particulate matter separates to the top. The clear layer is separated, diluted with the same buffer (1:1) and then adjusted to between pH 6.8 to 7.0.
The diluted rumen fluid (10 ml) is placed in a 25-ml flask with 40 mg of the above-described feed, an additional 1 mg of soybean protein, and the compound to be tested. Four replicate flasks are used per treatment. Two sets of four control flasks each are also employed. A zero-time control and an incubated 16-hour control are used. All test flasks are incubated for 16 hours at 38° C. […] The samples are allowed to settle, and the supernatants are analyzed by gas chromatography for propionate, acetate, and butyrate compounds.

ruminal propionic acid = ruminal propionic acid concentration in fistulated steers; assay type: in vivo; settings: mean of five analyses in 14-day treatment
Protocol: The test reported in Table XII was conducted with mature fistulated steers weighing about 1,000 lbs. each. Two steers were fed a normal diet, and four steers in each treatment group were fed an identical diet to which A-28086 factor A had been added. To each aliquot (100 ml) of rumen fluid taken, 10 percent metaphosphoric acid (100 ml) was added. The samples were allowed to settle, and the supernatants were analyzed by gas chromatographic methods to determine propionic acid concentrations.
The results in Table XII are the mean percent increases in ruminal propionic acid concentration, averaged over five analyses in a 14-day treatment period. Controls had approximately 20 molar percent propionic acid.

[2] = feed-utilization efficiency in sheep; assay type: in vivo; settings: 56 days; for Feed Intake: control 3.56; for Feed/Gain: control 8.38; for Average Daily Gain: control .42
herpes virus = experiment: in vitro plaque suppression test; assay type: cell-based
[3] = system: E. tenella, E. necatrix, E. maxima, E. brunetti, E. acervulina, and E. mivati; experiment: anticoccidial activity in chicks, mixed infection (Table X); assay type: in vivo; settings: 0.01 percent in feed
Text: (§2) ^1 Four replicates, 5 broiler cockerels each.

[4] = system: E. necatrix and E. tenella; experiment: as above; assay type: in vivo; settings: 0.005 percent in feed
Text: as §2

solubility = assay type: physicochemical
[5] = system: Infectious Bovine Rhinotracheitis virus; assay type: cell-based
[6] = system: Staphylococcus aureus (H-Heatley) NRRL B-314; experiment: turbidometric assay on semiautomated system (Autoturb), relative gram-positive activity; assay type: cell-based; settings: relative to A-28086 factor A (standard); nutrient broth pH 7, four hours at 37° C.
Protocol: The C2 -C6 -acyl ester derivatives of A-28086 factor A also have antibacterial and antifungal activity. In one aspect, these derivatives have increased gram-positive activity. The relative gram-positive activities of certain of these derivatives were compared with the activity of factor A. The compounds were tested by turbidometric assay on a semiautomated system (Autoturb® microbiological assay system, Elanco) described by N. R. Kuzel and F. W. Kavanaugh in J. Pharmaceut. Sci. 60 (5), 764 and 767 (1971). In testing the A-28086 antibiotics, the following test parameters were used: Staphylococcus aureus (H-Heatley) NRRL B-314 in a nutrient broth medium (pH 7), incubated for four hours at 37° C. Test samples and the standard were dissolved in methanol-water (10:90). The standard, A-28086 factor A, was presented to the Autoturb® carrousel at concentrations of 2, 3, 4, and 5 mcg/ml. Test compounds were diluted to contain approximately 3 or 4 mcg of activity per ml, as presented to the carrousel. The relative activities of test compounds, as compared to that of the standard, are given below: […]

Compound: CCC(C(=O)O)C1OC(C(C)C(O)C(C)C(=O)C(CC)C2OC3(C=CC(O)C4(CCC(C)(C5CCC(O)(CC)C(C)O5)O4)O3)C(C)CC2C)C(C)CC1C (stereo not shown) [A-28086 factor A]
- antiviral activity (Newcastle Disease virus): active
- antiviral activity [1]: active
- Oocysts Passed, Percent Reduction (Emeria brunetti): 58%
- Percent Mortality (Emeria brunetti): 0%
- Average Lesion Score (Emeria brunetti; infected controls 1.7): 1.2
- Oocysts Passed, Total/Bird (Emeria brunetti; infected controls 5.55): 2.31 1 × 10^6
- Percent Weight Gain (Emeria brunetti; infected controls 62): 88%
- Oocysts Passed, Percent Reduction (Eimeria acervulina; 0.0025 percent in feed): 86%
- Percent Mortality (Eimeria acervulina; 0.0025 percent in feed): 0%
- Average Lesion Score (Eimeria acervulina; 0.0025 percent in feed): 1.25
- Oocysts Passed, Total/Bird (Eimeria acervulina; 0.0025 percent in feed): 4.91 1 × 10^6
- Percent Weight Gain (Eimeria acervulina; 0.0025 percent in feed): 82%
- Oocysts Passed, Percent Reduction (Eimeria acervulina; 0.005 percent in feed): 83%
- Percent Mortality (Eimeria acervulina; 0.005 percent in feed): 0%
- Percent Reduction in Lesion Score (Eimeria acervulina; 0.005 percent in feed): 53%
- Average Lesion Score (Eimeria acervulina; 0.005 percent in feed): 0.75
- Oocysts Passed, Total/Bird (Eimeria acervulina; 0.005 percent in feed): 6.15 1 × 10^6
- Percent Weight Gain (Eimeria acervulina; 0.005 percent in feed): 87%
- Oocysts Passed, Percent Reduction (Eimeria maxima): 40%
- Percent Mortality (Eimeria maxima): 0%
- Percent Reduction in Lesion Score (Eimeria maxima): 85%
- Average Lesion Score (Eimeria maxima; infected controls 1.3): 0.2
- Oocysts Passed, Total/Bird (Eimeria maxima; infected controls 3.24): 1.95 1 × 10^6
- Percent Weight Gain (Eimeria maxima; infected controls 65): 85%
- antiviral activity (Semliki Forest virus): active
- Ratio of Treated to Control, Molar % acetate (rumen fluid): 0.94
- Ratio of Treated to Control, Molar % butyrate (rumen fluid): 0.87
- Ratio of Treated to Control, Molar % propionate (rumen fluid): 1.34
- Ratio of Treated to Control, Total VFA mM/l (rumen fluid): 1.26
- Percent Increase Over Control in ruminal propionic acid concentration (ruminal propionic acid; 25 mg/day): 17.4%
- Percent Increase Over Control in ruminal propionic acid concentration (ruminal propionic acid; 100 mg/day): 54.0%
- Feed Intake ([2]; 9 g per ton of feed): 3.29 lbs./day
- Feed/Gain ([2]; 9 g per ton of feed): 7.40
- Average Daily Gain ([2]; 9 g per ton of feed): .44 lbs./day
- Feed Intake ([2]; 18 g per ton of feed): 3.15 lbs./day
- Feed/Gain ([2]; 18 g per ton of feed): 8.31
- Average Daily Gain ([2]; 18 g per ton of feed): .38 lbs./day
- feed-utilization efficiency (in words) ([2]; sheep): increases feed-utilization efficiency
- antiviral activity (herpes virus): active
- Cecal Lesions, Percent Reduction [3]: 73%
- Intestinal Lesions, Percent Reduction [3]: 79%
- Intestinal Lesions, Average ([3]; infected controls 1.9): 0.4
- Cecal Lesions, Average ([3]; infected controls 3.3): 0.9
- Percent Weight Gain ([3]; infected controls 12): 91%
- Percent Mortality ([3]; infected controls 50): 0%
- Cecal Lesions, Percent Reduction [4]: 50%
- Intestinal Lesions, Percent Reduction [4]: 59%
- Intestinal Lesions, Average ([4]; infected controls 1.7): 0.7
- Cecal Lesions, Average ([4]; infected controls 3.5): 1.75
- Percent Mortality ([4]; infected controls 20): 0%
- Percent Weight Gain ([4]; infected controls 52): 94%
- solubility in organic solvents (solubility; organic solvents such as methanol, ethanol, DMF, DMSO, ethyl acetate, chloroform, acetone, benzene): soluble
- solubility in water (solubility; water): insoluble in water
- antiviral activity [5]: active
- Relative G+ Activity [6]: 1
